In patent US6537978B1, “Oral administration of effective amounts of forms of hyaluronic acid” (Jagotec AG, priority 1996, dated 2003):

What was measured:
neutrophils = assay: MPO (myleoperoxidase) content, neutrophil accumulation at the site of restenosis, oral HA; assay type: in vivo, rat; conditions: FIG. 8
From the text: With respect to neutrophil accumulation, reference is to be had to FIG. 8—MPO Content (oral) where MPO is Myleoperoxidase and MPO has been assayed by the methods known to persons skilled in the art. This assay for detecting myleoperoxidase (which is an enzyme) is a good test and thus a good measure for detecting neutrophils.

rat carotid artery = assay: Stenosis after balloon angioplasty injury of the rat carotid artery, oral HA; assay type: in vivo; conditions: for N/I RATIO ± S.E.M. (NEOINTIMA /INTIMA RATIO WHERE N IS NEOINTIMA AND I IS INTIMA): rat carotid artery after balloon injury, mean of four animals
From the text: FIG. 6 consists of a series of photographs of the cross-sections through carotid arteries of rats showing the effects of different amounts of orally administered Hyaluronan in stenosis of the rat carotid arteries:
All vessels were injured with a fogherty balloon as described in the prior art (Forns et. al., 1994) Cross-sections of arteries of rats treated with HA, saline or left untreated are as shown:
These values represent the mean of, and standard error of the mean (S.E.M.) of, four animals. These experiments were repeated twice with similar results.
FIG. 7 illustrates the effects of oral administration of HA on Neointimal formation in rats after balloon angioplasty. Six groups of tests were conducted, each test in respect of 3 rats. Thus, the six test results shown in […] resulted from the use of 18 rats. […] This is consistent with the findings illustrated in FIGS. 6 and 8 and the discussion herein.

[1] = Human serum hyaluronan levels and molecular weight after oral administration; assay type: in vivo; conditions: oral 30.0 mg/kg, m.w. less than 750,000 daltons (Protein Standard), FIG. 10
From the text: FIGS. 11A, 11B and 11C illustrate the release of amounts of hyaluronic acid into the blood stream of individuals (human) who have taken hyaluronan orally and the molecular weights of the serum hyaluronan released by the bodily processes. The molecular weights of the hyaluronan released into the human blood serum appear to include amounts at peaks between 400,000 daltons and 600,000 daltons such as less than 500,000 daltons, between about 200,000 and about 300,000 such as greater than 200,000 daltons, and between about 30,000 daltons and about 80,000 daltons (determined using the Dextran Standard).
FIG. 10 illustrates the mean serum hyaluronan concentration after giving individual humans oral dosages containing 30.0 mg/kg of hyaluronan (molecular weight less than 750,000 daltons determined by the Protein Standard).

[2] = Rat serum hyaluronic acid levels and molecular weight after oral administration (gel filtration, carbazole and aggrecan ELISA-like assay); assay type: in vivo; conditions: for serum/blood HA amount after oral compared with subcutaneous administration: oral 30 mg/kg vs subcutaneous 30-100 mg/kg
Description: Elisa-Like Assay for Hyaluronic Acid in Column Fractions from Serum Obtained after the Oral Administration of Sodium Hyaluronate at 30 mg/kg (400.000)Daltons Mean Average Molecular Weight Distribution (Protein Standard), 2% by Weight in Sterile Water)
using 2 mL fraction volumes.
B.) Elisa-Like Assay for Hyaluronic Acid
Prior to assay the column fractions were prepared in the following manner:
1900 μ.L of each 2 mL fraction was frozen at—80° C. and then taken to dryness on a speed vac concentrator at room temperature.
fractions were reconstituted with 125 μ.L of ddH2O and then assayed.
The sharp drop in serum hyaluronic acid levels seen at 3 and 6 hours post-feeding appears to be a real event since it was reproduced in serum analyzed from two different animals for each time point. The overall trend appears to be satisfactory. It is indicative of an initial absorption of sodium hyaluronate in the stomach (1 hour post-feeding of HA) followed by a rapid clearance of this initial “pulse” from the blood. The second “pulse” of increased serum hyaluronic acid (9-12 hours post-feeding of HA) appears then to represent a second phase of absorption, as the administered sodium hyualuronate moves into the small and large intestine. The majority of serum hyaluronic acid at 1 hour and 9 hours post-feeding of HA (FIG. 3 (A), (D)) elutes in the region of V, indicating a molecular weight >71 kDa(Kilodaltons (high molecular weight species). Between 12-24 hours post-feeding (FIG. 3 (E), (G)), there appears to be an emergence of smaller molecular weight hyaluronic acid species in the molecular weight range between about 30 and about >80 kDa, and more particularly between 71-37.7 kDa (Kilo-daltons (peaks 1,2 and 3 in FIG. 1(G), representing 55.5, 47 and 38 kDa, respectively (Protein Standard). Two assays were used to measure HA in serum: (i) carbazole, and (ii) aggrecan assay.
F: Carbazole Assay for the Determination of Glucuronic Acid
For this assay, a linear response has been achieved with hyaluronic acid standards up to 200 μg./mL, (the range of linearity is expected to be extendible to even higher standard concentrations).
Place 3 mL of 0.025 M sodium tetraborate solution in glass tubes and cool thoroughly on ice prior to addition of samples and standards.
Carefully layer (so as to avoid mixing) 0.5 mL of sample or standard over the sodium tetraborate solution in the reaction tubes and place tubes back on ice until all tubes have been prepared.
Mix the contents of each tube thoroughly with a vortex mixer and return the tube to the ice, while mixing the others, to prevent excessive heating of sample.
Place reaction tubes in a 90° C. water bath for 10 minutes and then transfer to a tub of cool water for 5-10 minutes.
Add 100 μ.L of 0.125% carbazole solution to each tube and mix thoroughly with a vortex mixer.
Re-heat the reaction tubes in the 90° C. water bath for an additional 15 minutes. Transfer to a tub of cool water for 5-10 minutes.
Measure absorbance of samples and standards at 530 nm.
After completion of the reaction,transfter 200 μ.L of each sample and standard to individual wells of a 96 well microtest plate. Immediately measure the sample absorbance at 530 ηm (550 ηm, given the available filters with some instruments) using a microplate reader. Biotinylated Aggregcan, an HA binding protein, can be used to detect low levels of HA in serum by in ELISA assay that has been published and is known to persons skilled in the art. This assay is more sensitive than the carbazole assay and was used for conformation.

[3] = oral 30 mg/kg, 12-24 hours post-feeding, Protein Standard

time window of increased serum hyaluronan levels [1]: 4 to 12 h | serum/blood HA amount after oral compared with subcutaneous administration [2]: similar | molecular weight of serum hyaluronic acid, peak 1 [2, 3]: 55.5 kDa | molecular weight of serum hyaluronic acid, peak 2 [2, 3]: 47 kDa | molecular weight of serum hyaluronic acid, peak 3 [2, 3]: 38 kDa | molecular weight of the majority of serum hyaluronic acid ([2]; oral 30 mg/kg, 1 hour and 9 hours post-feeding, Protein Standard): > 71 kDa | time after administration at which serum hyaluronan levels increase ([2]; oral 30 mg/kg, FIG. 4): about 1.25 hours | first increase of serum hyaluronic acid after oral administration ([2]; single oral dose 30 mg/kg, 2% in sterile water): increased within the first hour
Substance: sodium hyaluronate [HA]
neutrophil number (MPO content) at the site of restenosis (neutrophils): reduces the number of neutrophils | N/I RATIO ± S.E.M. (NEOINTIMA /INTIMA RATIO WHERE N IS NEOINTIMA AND I IS INTIMA) (rat carotid artery; 1 mg/kg orally): 2.6 ± 0.8 | N/I RATIO ± S.E.M. (NEOINTIMA /INTIMA RATIO WHERE N IS NEOINTIMA AND I IS INTIMA) (rat carotid artery; 3 mg/kg orally): 1.7 ± 0.4 | N/I RATIO ± S.E.M. (NEOINTIMA /INTIMA RATIO WHERE N IS NEOINTIMA AND I IS INTIMA) (rat carotid artery; 10 mg/kg orally): 0.4 ± 0.03 | N/I RATIO ± S.E.M. (NEOINTIMA /INTIMA RATIO WHERE N IS NEOINTIMA AND I IS INTIMA) (rat carotid artery; 30 mg/kg orally): 0.99 ± 0.06 | N/I RATIO ± S.E.M. (NEOINTIMA /INTIMA RATIO WHERE N IS NEOINTIMA AND I IS INTIMA) (rat carotid artery; 100 mg/kg orally): 1.1 ± 0.08 | neointimal to total wall ratio, order of the dose groups (rat carotid artery; oral HA, rats after balloon angioplasty, 3 rats per group, FIG. 7): greater for administration of saline, followed by the administration of HA in amounts per kilogram of body weight of 1 mg, then 100 mg, 10 mg and 3 mg | oral dose with optimal effects on smooth muscle cell proliferation (rat carotid artery; oral administration, rat, FIG. 6): 3 to 10 mg/kg | serum/blood HA amount after oral compared with subcutaneous administration ([2]; listed as sodium hyaluronate): on the order of that seen for the subcutaneous administration of this compound at 30-100 mg/kg | time course of HA in blood after oral administration ([2]; oral 30 mg/kg, FIG. 3): burst of HA in blood one hour after administration, a decrease for five hours followed by a steady increase over the next eighteen hours | serum hyaluronic acid after the first pulse ([2]; single oral dose 30 mg/kg, 3 and 6 hours post-feeding): sharp decrease to background levels in normal serum at 3 and 6 hours post-feeding | second increase of serum hyaluronic acid ([2]; single oral dose 30 mg/kg, from 9 hours post-feeding): increase at 9 hours post-feeding of HA and this increase is sustained over the time period extending up to 24 hours
